Data: ChEMBL document CHEMBL4842378, “An Enantiodefined Conformationally Constrained Fatty Acid Mimetic and Potent Inhibitor of ToxT” (ACS Med Chem Lett, 2021)
The source made the active and inactive calls. No cut-off for these calls is given here.

Assays:
[1] = target: T1, TCP pilus virulence regulatory protein (Vibrio cholerae serotype O1 (strain ATCC 39541 / Classical Ogawa 395 /O395)) (UniProt A5F384); assay: Inhibition of wild type ToxT in Vibrio cholerae El Tor strain C6706 at 500 nM measured after 3.5 hrs by beta-galactosidase assay relative to control
T1 sequence (whole entry): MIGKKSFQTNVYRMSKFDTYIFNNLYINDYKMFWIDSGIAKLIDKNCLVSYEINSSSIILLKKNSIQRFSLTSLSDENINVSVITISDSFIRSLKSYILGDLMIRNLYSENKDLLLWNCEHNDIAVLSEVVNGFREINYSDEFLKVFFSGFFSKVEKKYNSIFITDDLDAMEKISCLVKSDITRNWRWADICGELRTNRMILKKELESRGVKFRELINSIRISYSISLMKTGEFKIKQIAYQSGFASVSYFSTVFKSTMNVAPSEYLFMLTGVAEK

[2] = target: T1, TCP pilus virulence regulatory protein (Vibrio cholerae serotype O1 (strain ATCC 39541 / Classical Ogawa 395 /O395)); assay: Inhibition of ToxT in Vibrio cholerae at upto 5 uM measured after 3.5 hrs by beta-galactosidase assay relative to control; settings: dose microM <=5, time 3.5 hrs
[3] = target: T1, TCP pilus virulence regulatory protein (Vibrio cholerae serotype O1 (strain ATCC 39541 / Classical Ogawa 395 /O395)); assay: Inhibition of ToxT in delattoxT tcpA-linked LacZ reporter gene harboring Vibrio cholerae at 500 nM measured after 3.5 hrs by beta-galactosidase assay relative to control

SMILES | inhibition [1] | inhibition [2] [%] | inhibition [3] [%]
CCCC1=C2CCC[C@@]2(C)CC[C@@H]1CC/C=C/C(=O)O | Active |  | 
CCCCC1=C2CCC[C@@]2(C)CC[C@@H]1CCC(=O)O | 80% |  | 
O=C(O)CCCN1C(=O)c2cccc3cccc(c23)C1=O |  | 20 | 
Cc1cccc2c1C(CCC(=O)O)CCC2 (racemic) | 45% |  | 80
CCCCC1=C2CCC[C@]2(C)CC[C@H]1CCC(=O)O | 50% |  | 
CCCCC1=C2CCC[C@@]2(C)CC[C@@H]1CC/C=C/C(=O)O | 25% |  | 
CCCC1=C2CCC[C@@]2(C)CC[C@@H]1CCC(=O)O | 60% |  | 
